# Counter-ions that a name gives are not always drawn.
# Assays:
# Bacillus cereus [1] = conditions: cited from earlier work; for MIC against Bacillus cereus: previous studies ref 31
# MCF-7 cells [2] = test: MTT antiproliferative activity assay, MCF-7; assay type: cell-based, human; conditions: Homo sapiens, MCF7; MTT, 48 h treatment, average of three replicates; read-out: IC50 MCF-7
# Procedure: (§1) Hep-2 (larynx carcinoma, ATCC: CCL-23), MCF-7 (breast epithelial adenocarcinoma, ATCC: HTB-22), and Vero (African green monkey kidney, ATCC: CCL-81) cell lines were kindly provided by Dr. Mona Hassuneh (Department of Biological Sciences, University of Jordan). Cells were grown in Minimum Essential Medium Eagle (Gibco, Paisley UK) supplemented with 10% heat inactivated fetal bovine serum (Gibco, Paisley UK), 29 μg/mL L-glutamine, and 40 μg/mL gentamicin. Cells were incubated in a humidified atmosphere of 5% CO2 at 37 °C.
# (§2) The antiproliferative activity of Inula viscosa compounds was measured using the MTT (3-(4,5-dimethylthiazol-2-yl)-2,5-diphenyltetrazolium bromide) assay (Promega, Madison, WI, USA). The assay detects the reduction of MTT by mitochondrial dehydrogenase to blue formazan product, which reflects the normal function of mitochondria and cell viability. Exponentially growing cells were washed and seeded at 17,000 cells/well for Hep-2 cell line and 11,000 cells/ well for MCF-7 cell line (in 200 μL of growth medium) in 96 well microplates (Nunc, Roskilde, Denmark). After 24 h incubation, a partial monolayer was formed then the media was removed and 200 μL of the medium containing the compound (initially dissolved in DMSO) were added and re-incubated for 48 h. Then 100 μL of the medium were aspirated and 15 μL of the MTT solution were added to the remaining medium (100 μL) in each well. After 4 h contact with the MTT solution, blue crystals were formed. One hundred μL of the stop solution were added and incubated further for 1 h.
# (§3) Reduced MTT was assayed at 550 nm using a microplate reader (Biotek, Winooski, VT, USA). Control groups received the same amount of DMSO (0.1%).Untreated cells were used as a negative control while, cells treated with vincristine sulfate were used as a positive control. Eight concentrations (150, 100, 50, 20, 10, 5, 2, and 1 μg/mL) were prepared from each compound and tested against the three cell lines. IC50 values were calculated as the concentrations that show 50% inhibition of proliferation on any tested cell line. Stock solutions of the compounds were dissolved in (DMSO) then diluted with the medium and sterilized using 0.2 μm membrane filters. The toxicity of DMSO was determined and the final dilution of compounds used for treating the cells contained not more than 0.1% (non toxic concentration) DMSO. IC50 values were reported as the average of three replicates. The antiproliferative effect of the tested compounds was determined by comparing the optical density of the treated cells against the optical density of the control (cells treated with media containing 0.1% DMSO).
# Vero cells = test: MTT antiproliferative activity assay, Vero; assay type: cell-based, African green monkey; conditions: Chlorocebus sabaeus, Vero; MTT, 48 h treatment, average of three replicates; read-out: IC50 Vero
# Procedure: as §1, §2, §3
# MCF-7 cells [3] = test: Scanning electron microscopy of MCF-7 cells; assay type: cell-based, human; conditions: 15 µg/mL compound (vincristin sulfate 40 nM), 48 h
# Procedure: MCF-7 cells were cultured in complete DMEM containing either 15 µg/mL of 3-O-methylquercetin or 3,3′-di-O-methylquercetin and incubated for 48 h in humidified CO2 incubator. Negative control cells were incubated with complete DMEM and positive control cells received complete DMEM containing 40 nM vincristin sulfate. Treated cells were fixed with 3% glutaraldehyde for 1.5 h followed by osmium tetroxide (2% in PBS) for 1 h. After fixation, cells were washed in PBS and sequentially dehydrated using 30%, 70%, and 100% ethanol. Fixed cells were attached to a metal stubs and sputter coated with platinum by using Emitech K550X coating unit (Qourum Technology, West Sussex, UK). The coated specimens were viewed using Inspect F50/FEG scanning electron microscope (FEI, Eindhoven, The Netherlands) at accelerating voltage of 2–5 kV. Bacillus cereus cells treated with 3,3′-di-O-methylquercetin for 24 h were collected by centrifugation and washed with sodium phosphate buffer. Following that, the samples were fixed in 2.5% glutaraldehyde in 0.1 M phosphate buffer, pH 7.3, at 4 °C overnight, and postfixed in 1% osmium tetroxide in the phosphate buffer for 1 h at room temperature. Bacterial cells were dehydrated with sequential ethanol concentrations (30–100%) and coated for the observations under scanning electron microscope.
# Hep-2 cells = test: MTT antiproliferative activity assay, Hep-2; assay type: cell-based; conditions: Homo sapiens, HEp-2; MTT, 48 h treatment, average of three replicates; read-out: IC50 Hep-2
# Procedure: as §1, §2, §3
# [4] = test system: Methicillin resistant Staphylococcus aureus (MRSA); test: Microtiter plate dilution MIC, MRSA; assay type: cell-based; conditions: Staphylococcus aureus, MRSA; clinical isolate, 24 h, 100% inhibition; read-out: Minimum inhibitory concentration (MIC) MRSA
# Procedure: (§4) The microbial strains used in this study were Escherichia coli (ATCC 10798), Salmonella typhimurium (ATCC14028), Methicillin resistant Staphylococcus aureus (MRSA, Clinical isolate), Bacillus cereus (Toxigenic strain TS), and Candida albicans (ATCC 90028). Bacterial strains were stocked onto nutrient agar slant at 4 °C, and Candida albicans was stocked onto malt agar slant at 4 °C.
# (§5) The microtiter plate dilution method was used to determine the MIC (minimum inhibitory concentration) of compounds under study. Sterile 96-well microplates (Nunc) were used for the assay. Stock compounds were dissolved in DMSO so that the final concentrations in micro wells were less than 1% DMSO and solvent controls were run at these concentrations. Positive controls of penicillin G and tetracycline (Oxoid, Hampshire, UK) were prepared at the following concentrations 2, 4, 8, 16, 31, 62.5, 125, and 250 μg/mL. 1% DMSO was used as a solvent control. Compounds were diluted to twice the desired initial test concentration (250 µg/mL) with Muller Hinton broth (MHB) (Oxoid). All wells, except the first were filled with MHB (50 μL). Compounds (100 μL) were added to the first well and serial two-fold dilutions were made down to the desired minimum concentration (2 μg/mL). An over-night culture of bacteria suspended in MHB was adjusted to turbidity equal to 0.5 McFarland standard. The plates were inoculated with bacterial suspension (50 μL/well) and incubated at 37 °C for 24 h. Then the turbidity was measured using micro-plate reader (Biotek) at 620 nm wavelength. The same procedure was used to determine the antifungal activity of compounds against Candida albicans. The medium used was malt extract broth. The yeast cells were suspended in 0.85% saline, with an optical density equivalent to 0.5 McFarland standard, and diluted 1:100 in malt extract broth to obtain the working concentration. After 24 h incubation with each compound, the turbidity was measured at 530 nm wavelength using a spectrophotometer (Biotek). Percentage inhibition for tested microorganisms was calculated using the following formula:
# (§6) MIC was determined as the lowest concentration of the compound that causes complete inhibition (100%) of each microorganism.
# Bacillus cereus [5] = test: Microtiter plate dilution MIC, B. cereus; assay type: cell-based; conditions: Bacillus cereus; Toxigenic strain TS, 24 h, 100% inhibition; read-out: Minimum inhibitory concentration (MIC) B.c
# Procedure: as §4, §5, §6
# MCF-7 cells [6] = test: TUNEL colorimetric apoptosis assay; assay type: cell-based, human; conditions: 15 µg/mL, 28 h, compared with untreated cells
# Procedure: Apoptosis was detected using terminal deoxynucleotidyl transferase (TdT) mediated-16-deoxyuridine triphosphate (dUTP) Nick-End Labelling (TUNEL) system (Promega, Madison, WI, USA). MCF-7 cells cultured in 24 well plates were treated with 15 µg/mL of either 3-O-methylquercetin or 3,3′-di-O-methylquercetin for 28 h. The assay was conducted according to the manufacturer's instructions. Briefly, treated cells were fixed using 10% formalin followed by washing with phosphate buffer saline (PBS). Cells were then permeabilized using 0.2% triton X-100. Biotinylated dUTP in rTdT reaction mixture was added to label the fragmented DNA at 37 °C for one hour, followed by blocking endogenous peroxidases using 0.3% hydrogen peroxide. Streptavidin HRP (1:500 in PBS) was added and incubated at room temperature for 30 min. Finally, hydrogen peroxide and chromagen diaminobenzidine were used to visualize nuclei with fragmented DNAs under the light microscope (Novex, Arnhem, Holland). Cells treated with 40 nM vincristine sulfate were used as a positive control while untreated cells were used as a negative control.
# Candida albicans = test: Microtiter plate dilution MIC, C. albicans; assay type: cell-based; conditions: Candida albicans, ATCC90028; ATCC 90028, malt extract broth, 24 h, 100% inhibition; read-out: Minimum inhibitory concentration (MIC) C.a
# Procedure: as §4, §5, §6
# Salmonella typhimurium = test: Microtiter plate dilution MIC, S. typhimurium; assay type: cell-based; conditions: Salmonella enterica, ATCC 14028 / TYPHIMURIUM; ATCC14028, 24 h, 100% inhibition; read-out: Minimum inhibitory concentration (MIC) S.t
# Procedure: as §4, §5, §6
# Escherichia coli = test: Microtiter plate dilution MIC, E. coli; assay type: cell-based; conditions: Escherichia coli, ATCC10798; ATCC 10798, 24 h, 100% inhibition; read-out: Minimum inhibitory concentration (MIC) E.c
# Procedure: as §4, §5, §6
IC50 (MCF-7 cells [2]),Compound,MIC against Bacillus cereus (Bacillus cereus [1]),IC50 (Vero cells),Cytomorphological alterations (scanning electron microscopy) (MCF-7 cells [3]),IC50 (Hep-2 cells),also measured
,O=c1c(O)c(-c2ccc(O)c(O)c2)oc2cc(O)cc(O)c12 [quercetin],350 µg/mL,,,,
10 ± 1.34 µg/mL,"CC[C@]1(O)C[C@H]2CN(CCc3c([nH]c4ccccc34)[C@@](C(=O)OC)(c3cc4c(cc3OC)N(C=O)[C@H]3[C@@](O)(C(=O)OC)[C@H](OC(C)=O)[C@]5(CC)C=CCN6CC[C@]43[C@@H]65)C2)C1 [Vincristine sulfate, reference compound]",,> 90 µg/mL,"morphological changes similar to those observed in cells treated with either 3-O-methylquercetin or 3,3′-di-O-methylquercetin",> 90 µg/mL,
,O=c1c(O[C@H]2OC[C@@H](O)[C@@H](O)[C@@H]2O)c(-c2ccc(O)c(O)c2)oc2cc(O)cc(O)c12 [quercetin-3-O-arabinoside],350 µg/mL,,,,
,Quercetin-3-O-glycoside,,,,,Inhibition of Bacillus cereus (concentration) (Bacillus cereus [1]; previous studies ref 32): 50 µg/mL
11.2 ± 1.93 µg/mL,COc1c(-c2ccc(O)c(O)c2)oc2cc(O)cc(O)c2c1=O [3-O-Methylquercetin],,> 150 µg/mL,"cell shrinkage, membrane blebbing, loss of contact with neighboring cells, and formation of apoptotic bodies",26.1 ± 2.18 µg/mL,"MIC [4]: > 250 µg/mL; MIC (Bacillus cereus [5]): 125 µg/mL; Apoptosis induction (DNA fragmentation, TUNEL) (MCF-7 cells [6]): increase in the number of apoptotic cells with fragmented DNA; MIC (Candida albicans): 250 µg/mL; MIC (Salmonella typhimurium): 125 µg/mL; MIC (Escherichia coli): > 250 µg/mL"
